# Molecular target: SHV-128 (Enterobacter cloacae, UniProt D5LIR5)
# Test: biochemical
# SHV-128, sequence (D5LIR5 entry or part of it): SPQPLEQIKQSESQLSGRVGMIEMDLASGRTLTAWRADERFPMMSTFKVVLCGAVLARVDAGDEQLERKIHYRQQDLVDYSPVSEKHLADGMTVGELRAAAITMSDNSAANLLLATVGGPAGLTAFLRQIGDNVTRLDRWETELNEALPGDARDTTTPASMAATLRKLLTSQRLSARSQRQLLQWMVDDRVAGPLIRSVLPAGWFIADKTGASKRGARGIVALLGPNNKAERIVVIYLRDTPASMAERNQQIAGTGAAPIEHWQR
smiles,measurement,value
O=C(O)[C@H]1/C(=C/CO)O[C@@H]2CC(=O)N21 [clavulanic acid],IC50,4.2 µM

# Reference: PMC4407307 (Journal of Biomedical Science, 2015)
